Test results: patent publication US4598075A, “Cephalosporin compounds” (Tanabe Seiyaku Co., Ltd., priority 1982, dated 1986)
≈ marks a conversion by molar mass, not a printed value. Where two headings read alike, the source gives them in different places.

Columns and labels:
Escherichia coli KC-14 [1] = experiment: Protective effects on bacterial infections in mice; format: in vivo; conditions: KC14, im, 168 h, intramuscular one hour after intraperitoneal infection, survival at 7 days
Experimental: (§1) Ten male mice weighing 20±1 g were used for each dose level. Mice were challenged via the intraperitoneal route with sufficient bacteria to kill all non-treated mice within 24 hours. All bacteria were suspended in 6 % mucin. A test compound were administered intramuscularly one hour after the infection. Survival ratios were determined 7 days after the infection. The median effective doses (ED50, mg/kg) of the test compound were estimated by the probito analysis.

[2] = system: Staphylococcus aureus Smith; experiment: Protective effects on bacterial infections in mice; format: in vivo; conditions: im, 168 h
Experimental: as §1

[3] = system: Enterobacter aerogenes 816; experiment: Protective effects on bacterial infections in mice; format: in vivo; conditions: 168 h
Experimental: as §1

Citrobacter freundii 916 [4] = experiment: Protective effects on bacterial infections in mice; format: in vivo; conditions: 168 h
Experimental: as §1

Serratia marcescens 7006 [5] = experiment: Protective effects on bacterial infections in mice; format: in vivo; conditions: 168 h
Experimental: as §1

[6] = system: Streptococcus faecalis CN-478; experiment: MIC by standard agar plate dilution method; format: cell-based; conditions: Enterococcus faecalis
Excerpt: The cephalosporin compound (I) of the present invention and pharmaceutically acceptable salts thereof show potent antimicrobial activity against a wide variety of microorganisms including those belonging to the genera Streptococcus (e.g., St. faecalis, St. pneumoniae), Staphylococcus (e.g., S. aureus, S. epidermidis) and Pseudomonas (e.g., Ps. aeruginosa, Ps. putida, Ps. stutzeri), and are particularly characterized by their potent antimicrobial activity against both gram-positive and gram-negative bacteria. […] The antimicrobial activity of 7β{(Z)-2-(2-aminothiazol-4-yl)-2-[(2-pyrrolidon-3-yl)oxyimino]-acetamido}-3-[(1-methyl-1H-tetrazol-5-yl)thio-methyl]-3-cephem-4-carboxylic acid against Staphylococcus aureus 252R is also more than 16 times stronger than those of Cefmenoxime and Ceftazidime. Moreover, the compound (I) and a salt thereof show potent antimicrobial activity against bacteria belonging to the genera Bacillus (e.g., B. subtilis), Escherichia (e.g., E. coli), Klebsiella (e.g., K. pneumoniae), Enterobacter (e.g., E. aerogenes, E. cloacae) and Serratia (e.g., S. marcescens).
(§2) The minimum inhibitory concentration (MIC, μg/ml) of a test compound was determined by means of a standard agar plate dilution method (based on the standard method of Japan Society of Chemotherapy). Media used in these experiments were Mueller-Hinton agar (MHA; Nissui).

[7] = Subcutaneous administration to SD-male rats for 14 consecutive days; format: in vivo; conditions: dose of 1000 mg for 14 consecutive days
Experimental: For example, no rats die even after 7β-{(Z)-2-(2-aminothiazol-4-yl)-2-[(2-pyrrolidon-3-yl)oxyimino]acetamido}-3-(1-pyridiniomethyl)-3-cephem-4-carboxylate (l-isomer) is administered subcutaneously to SD-male rats at a dose of 1000 mg for 14 consecutive days.

[8] = system: Staphylococcus aureus 252R; experiment: MIC by standard agar plate dilution method; format: cell-based
Experimental: as §2

[9] = system: Bacillus subtilis ATCC 6633; experiment: MIC by standard agar plate dilution method; format: cell-based; conditions: ATCC6633, Table 1, Mueller-Hinton agar
Experimental: as §2

[10] = system: Klebsiella pneumoniae 5038; experiment: MIC by standard agar plate dilution method; format: cell-based; conditions: Table 1, Mueller-Hinton agar
Experimental: as §2

[11] = system: Pseudomonas putida ATCC 12633; experiment: MIC by standard agar plate dilution method; format: cell-based; conditions: ATCC12633, Table 1, Mueller-Hinton agar
Experimental: as §2

[12] = system: Enterobacter cloacae TU-680; experiment: MIC by standard agar plate dilution method; format: cell-based; conditions: TU680, Table 1, Mueller-Hinton agar
Experimental: as §2

[13] = system: Pseudomonas aeruginosa 4096; experiment: MIC by standard agar plate dilution method; format: cell-based; conditions: Table 1, Mueller-Hinton agar
Experimental: as §2

[14] = system: Staphylococcus aureus Terajima; experiment: MIC by standard agar plate dilution method; format: cell-based; conditions: Table 1, Mueller-Hinton agar
Experimental: as §2

Escherichia coli KC-14 [15] = experiment: MIC by standard agar plate dilution method; format: cell-based; conditions: KC14, Table 2, read-out: M.I.C. (in parentheses)
Experimental: as §2
(§3) The results are shown in the following Table 2 together with the M. I. C. (μg/ml) of the test compound which was estimated in the same manner as described in Experiment I.

[16] = system: Staphylococcus aureus Smith; experiment: MIC by standard agar plate dilution method; format: cell-based; conditions: read-out: M.I.C. (in parentheses)
Experimental: as §2, §3

[17] = system: Enterobacter aerogenes 816; experiment: MIC by standard agar plate dilution method; format: cell-based
Experimental: as §2, §3

Citrobacter freundii 916 [18] = experiment: MIC by standard agar plate dilution method; format: cell-based
Experimental: as §2, §3

Serratia marcescens 7006 [19] = experiment: MIC by standard agar plate dilution method; format: cell-based
Experimental: as §2, §3

[20] = Staphylococcus aureus Smith, intramuscular one hour after intraperitoneal infection, survival at 7 days, read-out: ED50
[21] = Klebsiella aerogenes, im, Enterobacter aerogenes 816, intramuscular one hour after intraperitoneal infection, survival at 7 days, read-out: ED50
[22] = im, Citrobacter freundii 916, intramuscular one hour after intraperitoneal infection, survival at 7 days, read-out: ED50
[23] = im, Serratia marcescens 7006, intramuscular one hour after intraperitoneal infection, survival at 7 days, read-out: ED50
[24] = CN478, Table 1, Mueller-Hinton agar, Streptococcus faecalis CN-478, read-out: M.I.C.
[25] = CN478, agar dilution method, cultured for 20 hours at 37° C., Streptococcus faecalis CN 478, read-out: minimum inhibitory concentration (M.I.C.)
[26] = Table 1, Mueller-Hinton agar, Staphylococcus aureus 252R, read-out: M.I.C.
[27] = Table 2, Staphylococcus aureus Smith
[28] = Klebsiella aerogenes, Table 2, Enterobacter aerogenes 816, read-out: M.I.C. (in parentheses)
[29] = Table 2, Citrobacter freundii 916, read-out: M.I.C. (in parentheses)
[30] = Table 1, Mueller-Hinton agar, Serratia marcescens 7006, read-out: M.I.C.
[31] = Table 2, Serratia marcescens 7006, read-out: M.I.C. (in parentheses)

SMILES	ED50 (Escherichia coli KC-14 [1])	ED50 [2, 20]	ED50 [3, 21]	ED50 (Citrobacter freundii 916 [4]; [22])	ED50 (Serratia marcescens 7006 [5]; [23])	MIC [6, 24]	MIC [6, 25]	MIC [8, 26]	MIC [9]	MIC [10]	MIC [11]	MIC [12]	MIC [13]	MIC [14]	MIC (Escherichia coli KC-14 [15])	MIC [16, 27]	MIC [17, 28]	MIC (Citrobacter freundii 916 [18]; [29])	MIC (Serratia marcescens 7006 [19]; [30])	MIC (Serratia marcescens 7006 [19]; [31])	other results
Nc1nc(/C(=N/O[C@H]2CCNC2=O)C(=O)N[C@@H]2C(=O)N3C(C(=O)[O-])=C(C[n+]4ccccc4)CS[C@H]23)cs1 [Example 6, 7β-{(Z)-2-(2-aminothiazol-4-yl)-2-[(2-pyrrolidon-3-yl)oxyimino]acetamido}-3-(1-pyridiniomethyl)-3-cephem-4-carboxylate (l-isomer)]	0.05 mg/kg	1.71 mg/kg	1.37 mg/kg	0.06 mg/kg	0.14 mg/kg	12.5 µg/mL (≈ 23 µM)	12.5 µg/mL (≈ 23 µM)	25 µg/mL (≈ 46 µM)	0.2 µg/mL (≈ 0.368 µM)	0.05 µg/mL (≈ 0.092 µM)	1.56 µg/mL (≈ 2.87 µM)	≤ 0.05 µg/mL	0.39 µg/mL (≈ 0.717 µM)	0.78 µg/mL (≈ 1.43 µM)	0.05 µg/mL (≈ 0.092 µM)	1.56 µg/mL (≈ 2.87 µM)	0.39 µg/mL (≈ 0.717 µM)	0.1 µg/mL (≈ 0.184 µM)	≤ 0.05 µg/mL	0.05 µg/mL (≈ 0.092 µM)	deaths of rats [7]: no rats die
CO/N=C(\C(=O)N[C@@H]1C(=O)N2C(C(=O)O)=C(CSc3nnnn3C)CS[C@H]12)c1csc(N)n1 [Cefmenoxime, 7β-[(Z)-2-(2-aminothiazol-4-yl)-2-(methoxyimino)acetamido]-3-[(1-methyl-1H-tetrazol-5-yl)thiomethyl]-3-cephem-4-carboxylic acid]	0.16 mg/kg	5.32 mg/kg	23.9 mg/kg	0.19 mg/kg	0.88 mg/kg	> 100 µg/mL	> 100 µg/mL	> 100 µg/mL	1.56 µg/mL (≈ 3.05 µM)	0.1 µg/mL (≈ 0.195 µM)	100 µg/mL (≈ 195 µM)	0.1 µg/mL (≈ 0.195 µM)	6.25 µg/mL (≈ 12.2 µM)	1.56 µg/mL (≈ 3.05 µM)	0.025 µg/mL (≈ 0.0489 µM)	1.56 µg/mL (≈ 3.05 µM)	1.56 µg/mL (≈ 3.05 µM)	0.05 µg/mL (≈ 0.0977 µM)	0.2 µg/mL (≈ 0.391 µM)	0.2 µg/mL (≈ 0.391 µM)	
CN1CCC(O/N=C(\C(=O)N[C@@H]2C(=O)N3C(C(=O)O)=C(CSc4nnnn4C)CS[C@H]23)c2csc(N)n2)C1=O (stereo partly drawn) [7β-{(Z)-2-(2-aminothiazol-4-yl)-2-[(1-methyl-2-pyrrolidon-3-yl)oxyiminoacetamido}-3-[(1-methyl-1H-tetrazol-5-yl)thiomethyl]-3-cephem-4-carboxylic acid]							25 µg/mL (≈ 42 µM)														
Cn1nnnc1SCC1=C(C(=O)O)N2C(=O)[C@@H](NC(=O)/C(=N\OC3CCNC3=O)c3csc(N)n3)[C@H]2SC1 (stereo partly drawn) [7β{(Z)-2-(2-aminothiazol-4-yl)-2-[(2-pyrrolidon-3-yl)oxyimino]-acetamido}-3-[(1-methyl-1H-tetrazol-5-yl)thio-methyl]-3-cephem-4-carboxylic acid]																					antimicrobial activity stronger than those of Cefmenoxime and Ceftazidime ([8]; Staphylococcus aureus 252R, relative to Cefmenoxime and Ceftazidime): more than 16 times
CC(C)(O/N=C(\C(=O)N[C@@H]1C(=O)N2C(C(=O)[O-])=C(C[n+]3ccccc3)CS[C@H]12)c1csc(N)n1)C(=O)O [Ceftazidime, 7β-[(Z)-2-(2-aminothiazol-4-yl)-2-(2-carboxyprop-2-yloxyimino)acetamido]-3-(1-pyridiniomethyl)-3-cephem-4-carboxylate]	0.08 mg/kg								3.13 µg/mL (≈ 5.73 µM)	0.1 µg/mL (≈ 0.183 µM)	12.5 µg/mL (≈ 22.9 µM)	0.2 µg/mL (≈ 0.366 µM)	0.78 µg/mL (≈ 1.43 µM)	12.5 µg/mL (≈ 22.9 µM)	0.05 µg/mL (≈ 0.0915 µM)						ED50 ([2]; Staphylococcus aureus): 7.85 mg/kg; ED50 ([3]; Klebsiella aerogenes, 816, im): 26.4 mg/kg; ED50 (Citrobacter freundii 916 [4]; Citrobacter freundii, 916, im): 0.15 mg/kg; ED50 (Serratia marcescens 7006 [5]; Serratia marcescens, 7006, im): 0.54 mg/kg; MIC ([6]; CN478): > 100 µg/mL; MIC ([6]; CN478, 20 h, read-out: minimum inhibitory concentration (M.I.C.)): > 100 µg/mL; MIC ([8]; Staphylococcus aureus, 252R): > 100 µg/mL; MIC ([16]; Staphylococcus aureus): 12.5 µg/mL (≈ 22.9 µM); MIC ([17]; Klebsiella aerogenes, 816, read-out: M.I.C. (in parentheses)): 6.25 µg/mL (≈ 11.4 µM); MIC (Citrobacter freundii 916 [18]; Citrobacter freundii, 916, read-out: M.I.C. (in parentheses)): 0.39 µg/mL (≈ 0.714 µM); MIC (Serratia marcescens 7006 [19]; Serratia marcescens, 7006): 0.2 µg/mL (≈ 0.366 µM); MIC (Serratia marcescens 7006 [19]; Serratia marcescens, 7006, read-out: M.I.C. (in parentheses)): 0.2 µg/mL (≈ 0.366 µM)
